Results reported in US20050101595A1, “N-containing cycloalkyl-substituted amino-thiazole derivatives and pharmaceutical compositions for inhibiting cell proliferation and methods for their use” (PFIZER INC., priority 2003, published 2005).
Counter-ions that a name gives are not always drawn. Like-named read-outs stand apart in the source and are kept apart here.

Assays:
[1] = biological target: CDK2/Cyclin A (Homo sapiens, UniProt P24941); test: Inhibition of CDK2/Cyclin A Retinoblastoma Kinase Activity; format: biochemical; conditions: for Ki: apparent Ki, CDK2/proteolyzed cyclin A, Rb fragment substrate, 25 μM ATP; for CDK2 % Inhibition At 0.03 μM: Table 2
In short: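 Baculovirus-expressed CDK2 complexed with proteolyzed cyclin A (10 or 19 nM), Rb fragment substrate, 25 μM [32P/33P]ATP, HEPES pH 7.4, 30 °C for 60 or 75 min under initial-rate conditions. Filter capture and phosphorimager readout; apparent Ki fitted to competitive or tight-binding competitive inhibition.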

[2] = test system: HCT-116 cell line; test: Inhibition of cell growth, tetrazolium salt (MTT) assay; format: cell-based; conditions: for IC50: Homo sapiens, HCT-116, 120 h, MTT, three to five days, read-out: HCT-116 IC50; for HCT-116 % Inhibition at 0.25 μM: 0.25 μM compound
In short: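 HCT-116 cells in McCoy's 5A medium received compound 4 h after plating (0.5% v/v DMSO) and were incubated three to five days at 37° C, 5% CO2. MTT (0.2 mg/mL final) then added for 4 h; DMSO-solubilized formazan read at 540 nm against 0.5% DMSO-treated controls.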

[3] = biological target: human CDK4 and genetically truncated (1-264) cyclin D3 (Homo sapiens, UniProt P11802); test: Inhibition of CDK4/Cyclin D Retinoblastoma Kinase Activity; format: biochemical; conditions: for Ki: apparent Ki, CDK4/truncated cyclin D3, Rb fragment substrate, 25 μM ATP
Chain of human CDK4 and genetically truncated (1-264) cyclin D3 (P11802 whole entry, the tested form may be a part): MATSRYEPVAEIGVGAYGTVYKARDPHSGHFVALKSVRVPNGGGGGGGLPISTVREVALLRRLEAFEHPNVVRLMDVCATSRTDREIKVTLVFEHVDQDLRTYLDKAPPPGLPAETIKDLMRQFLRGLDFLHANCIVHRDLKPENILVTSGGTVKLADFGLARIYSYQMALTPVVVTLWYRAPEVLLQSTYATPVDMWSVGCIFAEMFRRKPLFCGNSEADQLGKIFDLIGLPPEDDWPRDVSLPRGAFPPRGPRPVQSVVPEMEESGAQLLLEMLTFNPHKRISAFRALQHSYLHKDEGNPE
Chain of human CDK4 and genetically truncated (1-264) cyclin D3 (P30281 1-264 partner): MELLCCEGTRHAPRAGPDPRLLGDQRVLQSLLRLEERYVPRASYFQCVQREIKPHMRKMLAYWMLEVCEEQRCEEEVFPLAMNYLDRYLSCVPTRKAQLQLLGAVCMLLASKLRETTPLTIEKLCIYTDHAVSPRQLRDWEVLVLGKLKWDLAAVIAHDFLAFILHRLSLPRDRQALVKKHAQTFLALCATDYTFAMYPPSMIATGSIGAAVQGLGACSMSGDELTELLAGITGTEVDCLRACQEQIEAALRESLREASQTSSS
In short: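 Human CDK4/truncated cyclin D3 (1-264) complex from baculovirus-infected insect cells, 5 nM, phosphorylating Rb fragment (residues 386-928, His-tagged) with 25 μM [32/33P]ATP in HEPES pH 7.4, MgCl2, 2% DMSO at 30° C. for 20 min (60 min for tight binders). Filter-captured radioactivity by phosphorimager; apparent Ki from competitive or tight-binding fits.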

[4] = 0.1 μM compound, HCT-116, Table 3

CN1CCC(Nc2nc(N)c(C(=O)c3c(F)cccc3F)s2)CC1 [Example A4, 1-[4-Amino-2-(1-methyl-piperidin-4-ylamino)-thiazol-5-yl]-1-(2,6-difluoro-phenyl)-methanone]
Ki [1]: 12 µM | IC50 ([2]; first HCT-116 column (c4)): 1.7 µM | IC50 ([2]; second HCT-116 column (c5)): 3.8 µM | Ki [3]: 0.93 µM

CCCCOc1ccc(C(C)(C)CC)cc1S(=O)(=O)N1CCC(Nc2nc(N)c(C(=O)c3c(F)cccc3F)s2)CC1 [Example P74]
CDK2 % Inhibition at 0.03 μM ([1]; 0.03 μM compound, Table 3): −30% | HCT-116 % Inhibition at 0.1 μM [2, 4]: 19% | HCT-116 % Inhibition at 0.25 μM ([2]; HCT-116, Table 3): 27% | CDK4 % Inhibition at 0.03 μM ([3]; 0.03 μM compound, Table 3): 4%

Nc1nc(NC2CCN(C(=O)Nc3cc(C(F)(F)F)ccc3F)CC2)sc1C(=O)c1c(F)cccc1F [Example O85]
CDK2 % Inhibition At 0.03 μM ([1]; 0.03 μM compound): 34% | HCT-116 % Inhibition at 0.25 μM ([2]; HCT-116, Table 2): 47% | CDK4 % Inhibition at 0.03 μM ([3]; 0.03 μM compound, Table 2): 8%

Nc1nc(NC2CCN(Cc3ccccn3)CC2)sc1C(=O)c1c(F)cccc1F [Example M1, 1-[4-Amino-2-(1-pyridin-2-ylmethyl-piperidin-4-ylamino)-thiazol-5-yl]-1-(2,6-difluoro-phenyl)-methanone]
Ki [1]: > 0.5 µM | IC50 ([2]; first HCT-116 column (c4)): 2.8 µM | IC50 ([2]; second HCT-116 column (c5)): 5 µM | Ki [3]: 0.24 µM

CCc1ccc(S(=O)(=O)N2CCC(Nc3nc(N)c(C(=O)c4c(F)cccc4F)s3)CC2)cc1 [Example P30]
CDK2 % Inhibition at 0.03 μM ([1]; 0.03 μM compound, Table 3): 53% | HCT-116 % Inhibition at 0.1 μM [2, 4]: 9% | HCT-116 % Inhibition at 0.25 μM ([2]; HCT-116, Table 3): 17% | CDK4 % Inhibition at 0.03 μM ([3]; 0.03 μM compound, Table 3): 61%

Nc1nc(NC2CCN(S(=O)(=O)CCc3ccccn3)CC2)sc1C(=O)c1c(F)cccc1F [Example F28, 1-{4-Amino-2-[1-(2-pyridin-2-yl-ethanesulfonyl)-piperidin-4-ylamino]-thiazol-5-yl}-1-(2,6-difluoro-phenyl)-methanone]
Ki [1]: 0.0036 µM | IC50 ([2]; first HCT-116 column (c4)): 0.65 µM | IC50 ([2]; second HCT-116 column (c5)): 1.3 µM | Ki [3]: 0.0081 µM

Nc1nc(NC2CCN(C(=O)CC3C=CCC3)CC2)sc1C(=O)c1c(F)cccc1F (centres unmarked) [Example R98]
CDK2 % Inhibition at 0.03 μM ([1]; at 0.03 μM): 8% | HCT-116 % Inhibition at 0.1 μM ([2]; HCT-116 cells, at 0.1 μM): 0% | HCT-116 5 Inhibition at 0.25 μM ([2]; HCT-116 cells): 44 | CDK4 % Inhibition at 0.03 μM ([3]; at 0.03 μM): 11%

Nc1nc(NC2CCN(C(=O)NCc3ccccc3)CC2)sc1C(=O)c1c(F)cccc1F [Example O37]
CDK2 % Inhibition At 0.03 μM ([1]; 0.03 μM compound): 40% | HCT-116 % Inhibition at 0.25 μM ([2]; HCT-116, Table 2): 34% | CDK4 % Inhibition at 0.03 μM ([3]; 0.03 μM compound, Table 2): 12%

Nc1nc(NC2CCN(C(=O)c3cc(C(F)(F)F)ccc3C(F)(F)F)CC2)sc1C(=O)c1c(F)cccc1F [Example R55]
CDK2 % Inhibition at 0.03 μM ([1]; at 0.03 μM): 11% | HCT-116 % Inhibition at 0.1 μM ([2]; HCT-116 cells, at 0.1 μM): 5% | HCT-116 5 Inhibition at 0.25 μM ([2]; HCT-116 cells): 51 | CDK4 % Inhibition at 0.03 μM ([3]; at 0.03 μM): 37%

Nc1nc(NC2CCN(S(=O)(=O)c3ccc(Cl)c4nonc34)CC2)sc1C(=O)c1c(F)cccc1F [Example P75]
CDK2 % Inhibition at 0.03 μM ([1]; 0.03 μM compound, Table 3): 60% | HCT-116 % Inhibition at 0.1 μM [2, 4]: 27% | HCT-116 % Inhibition at 0.25 μM ([2]; HCT-116, Table 3): 43% | CDK4 % Inhibition at 0.03 μM ([3]; 0.03 μM compound, Table 3): 79%

Nc1nc(NC2CCN(C(=O)c3ccc(F)cc3)CC2)sc1C(=O)c1c(F)cccc1F [Example R143]
CDK2 % Inhibition at 0.03 μM ([1]; at 0.03 μM): 30% | HCT-116 % Inhibition at 0.1 μM ([2]; HCT-116 cells, at 0.1 μM): 0% | HCT-116 5 Inhibition at 0.25 μM ([2]; HCT-116 cells): 40 | CDK4 % Inhibition at 0.03 μM ([3]; at 0.03 μM): 59%

Nc1nc(NC2CCN(S(=O)(=O)c3ccc(C(F)(F)F)cc3)CC2)sc1C(=O)c1c(F)cccc1F [Example P33]
CDK2 % Inhibition at 0.03 μM ([1]; 0.03 μM compound, Table 3): 56% | HCT-116 % Inhibition at 0.1 μM [2, 4]: 6% | HCT-116 % Inhibition at 0.25 μM ([2]; HCT-116, Table 3): 32% | CDK4 % Inhibition at 0.03 μM ([3]; 0.03 μM compound, Table 3): 59%

CC(C)(C)COC(=O)N1CCC(Nc2nc(N)c(C(=O)c3c(F)cccc3F)s2)CC1 [Example R88]
CDK2 % Inhibition at 0.03 μM ([1]; at 0.03 μM): 6% | HCT-116 % Inhibition at 0.1 μM ([2]; HCT-116 cells, at 0.1 μM): 0% | HCT-116 5 Inhibition at 0.25 μM ([2]; HCT-116 cells): 42 | CDK4 % Inhibition at 0.03 μM ([3]; at 0.03 μM): −3%

CC12CCC(C(=O)N3CCC(Nc4nc(N)c(C(=O)c5c(F)cccc5F)s4)CC3)(OC1=O)C2(C)C (centres unmarked) [Example R67]
CDK2 % Inhibition at 0.03 μM ([1]; at 0.03 μM): 11% | HCT-116 % Inhibition at 0.1 μM ([2]; HCT-116 cells, at 0.1 μM): 4% | HCT-116 5 Inhibition at 0.25 μM ([2]; HCT-116 cells): 40 | CDK4 % Inhibition at 0.03 μM ([3]; at 0.03 μM): 22%

CC(NC(=O)N1CCC(Nc2nc(N)c(C(=O)c3c(F)cccc3F)s2)CC1)c1ccccc1 (centres unmarked) [Example O66]
CDK2 % Inhibition At 0.03 μM ([1]; 0.03 μM compound, 0.03 µM): 32% | HCT-116 % Inhibition at 0.25 μM ([2]; HCT-116, Table 2, 0.25 µM): 36% | CDK4 % Inhibition at 0.03 μM ([3]; 0.03 μM compound, Table 2, 0.03 µM): −1%

CC(=O)OCC(=O)N1CCC(Nc2nc(N)c(C(=O)c3c(F)cccc3F)s2)CC1 [Example Q76]
CDK2 % Inhibition at 0.03 μM ([1]; 0.03 μM compound, Table 4): 27% | HCT-116 % Inhibition at 0.1 μM ([2]; 0.1 μM compound, HCT-116, Table 4): 4% | HCT-116 % Inhibition at 0.25 μM ([2]; HCT-116, Table 4): 36% | CDK4 % Inhibition at 0.03 μM ([3]; 0.03 μM compound, Table 4): 31%

Cc1cc(C)cc(CC(=O)N2CCC(Nc3nc(N)c(C(=O)c4c(F)cccc4F)s3)CC2)c1 [Example D10, 1-{4-[4-Amino-5-(2,6-difluoro-benzoyl)-thiazol-2-ylamino]piperidin-1-yl}-2-(3,5-dimethyl-phenyl)-ethanone]
Ki [1]: 0.085 µM | IC50 ([2]; first HCT-116 column (c4)): 0.06 µM | IC50 ([2]; second HCT-116 column (c5)): 0.2 µM | Ki [3]: 0.062 µM

Nc1nc(NC2CCN(C(=O)Nc3ccc4ccccc4c3)CC2)sc1C(=O)c1c(F)cccc1F [Example O54]
CDK2 % Inhibition At 0.03 μM ([1]; 0.03 μM compound): 34% | HCT-116 % Inhibition at 0.25 μM ([2]; HCT-116, Table 2): 46% | CDK4 % Inhibition at 0.03 μM ([3]; 0.03 μM compound, Table 2): 15%

N#Cc1cccc(NC(=O)N2CCC(Nc3nc(N)c(C(=O)c4c(F)cccc4F)s3)CC2)c1 [Example O43]
CDK2 % Inhibition At 0.03 μM ([1]; 0.03 μM compound): 31% | HCT-116 % Inhibition at 0.25 μM ([2]; HCT-116, Table 2): 12% | CDK4 % Inhibition at 0.03 μM ([3]; 0.03 μM compound, Table 2): 10%

N#Cc1ccc(NC(=O)N2CCC(Nc3nc(N)c(C(=O)c4c(F)cccc4F)s3)CC2)cc1 [Example O56]
CDK2 % Inhibition At 0.03 μM ([1]; 0.03 μM compound): 29% | HCT-116 % Inhibition at 0.25 μM ([2]; HCT-116, Table 2): 37% | CDK4 % Inhibition at 0.03 μM ([3]; 0.03 μM compound, Table 2): 9%

Nc1nc(NC2CCN(C(=O)Nc3cccnc3)CC2)sc1C(=O)c1c(F)cccc1F [Example O86]
CDK2 % Inhibition At 0.03 μM ([1]; 0.03 μM compound): 32% | HCT-116 % Inhibition at 0.25 μM ([2]; HCT-116, Table 2): 47% | CDK4 % Inhibition at 0.03 μM ([3]; 0.03 μM compound, Table 2): 23%

CCCCC(CC)C(=O)N1CCC(Nc2nc(N)c(C(=O)c3c(F)cccc3F)s2)CC1 (centres unmarked) [Example R168]
CDK2 % Inhibition at 0.03 μM ([1]; at 0.03 μM): 6% | HCT-116 % Inhibition at 0.1 μM ([2]; HCT-116 cells, at 0.1 μM): 0% | HCT-116 5 Inhibition at 0.25 μM ([2]; HCT-116 cells): 42 | CDK4 % Inhibition at 0.03 μM ([3]; at 0.03 μM): −4%

Nc1nc(NC2CCN(S(=O)(=O)c3ccc(N4CCC[C@H]4CO)nc3)CC2)sc1C(=O)c1c(F)cccc1F [Example G14, 1-{4-Amino-2-{1-[6-(2S-hydroxymethyl-pyrrolidin-1-yl)-pyridine-3-sulfonyl]-piperidin-4-ylamino}-thiazol-5-yl)-1-(2,6-difluoro-phenyl)-methanone Trifluoroacetic Acid Salt]
Ki [1]: 0.0005 µM | IC50 ([2]; first HCT-116 column (c4)): 0.14 µM | IC50 ([2]; second HCT-116 column (c5)): 3.5 µM | Ki [3]: 0.0008 µM

CN1CCC(Oc2ccc(S(=O)(=O)N3CCC(Nc4nc(N)c(C(=O)c5c(F)cccc5F)s4)CC3)cn2)CC1 [Example H14, 1-(4-Amino-2-{1-[6-(1-methyl-piperidin-4-yloxy)-pyridine-3-sulfonyl]-piperidin-4-ylamino}-thiazol-5-yl)-1-(2,6-difluoro-phenyl)-methanone Hydrochloride]
Ki [1]: 0.00074 µM | IC50 ([2]; first HCT-116 column (c4)): 0.04 µM | IC50 ([2]; second HCT-116 column (c5)): 0.4 µM | Ki [3]: 0.00034 µM

Cc1cc(C)c(NC(=O)N2CCC(Nc3nc(N)c(C(=O)c4c(F)cccc4F)s3)CC2)c(C)c1 [Example O55]
CDK2 % Inhibition At 0.03 μM ([1]; 0.03 μM compound): 28% | HCT-116 % Inhibition at 0.25 μM ([2]; HCT-116, Table 2): 41% | CDK4 % Inhibition at 0.03 μM ([3]; 0.03 μM compound, Table 2): 10%

Nc1nc(NC2CCN(C(=O)NCCc3cccs3)CC2)sc1C(=O)c1c(F)cccc1F [Example O65]
CDK2 % Inhibition At 0.03 μM ([1]; 0.03 μM compound): 22% | HCT-116 % Inhibition at 0.25 μM ([2]; HCT-116, Table 2): 44% | CDK4 % Inhibition at 0.03 μM ([3]; 0.03 μM compound, Table 2): −7%
